From publication PMC7218270 (EBioMedicine, 2020) come the findings set out here.

Converted amounts (≈) assume the structure as drawn. “And” between values parts separate entries of the source, which are not always exact repeats. Identical values can stand only once. Where only a bound is given, the exact number is not on record here.

One experiment has as its system Enterococcus faecalis. The experiment is described as follows: MIC, planktonic cells. Type of experiment: cell-based. As to conditions: 18 h.
The next experiment concerns E. coli ATCC25922. The experiment is described as follows: MIC, planktonic cells. As to conditions: Escherichia coli, ATCC25922, 18 h. The format is cell-based.
A further experiment relates to P. aeruginosa 103. As to the kind of experiment: MIC, planktonic cells. The format is cell-based. Conditions: Pseudomonas aeruginosa, 103, 18 h.
Experiment [1] relates to Drug-susceptible P. aeruginosa. As to the kind of experiment: Resistance study, serial passages. Conditions: passages at 1/4 × MIC. The format is cell-based.
The next experiment has as its system E. coli A2. The experiment is described as follows: MIC, planktonic cells. Conditions: Escherichia coli, A2, 18 h. The format is cell-based.
For the next experiment, the system named is P. aeruginosa ATCC27853. As to the kind of experiment: MIC, planktonic cells. Type of experiment: cell-based. Conditions: Pseudomonas aeruginosa, ATCC27853, 18 h.
In the next experiment the test system is P. aeruginosa CMCC10104. As to the kind of experiment: MIC, planktonic cells. The format is cell-based. Conditions: Pseudomonas aeruginosa, CMCC10104, 18 h.
For the next experiment, the system named is S. pneumoniae. As to the kind of experiment: MIC, planktonic cells. The format is cell-based. As to conditions: Streptococcus pneumoniae, 18 h.
In the next experiment the test system is Mlicrococcus scarlatinae. The experiment is described as follows: MIC, planktonic cells. The format is cell-based. Conditions: 18 h.
Another experiment deals with P. aeruginosa 110. The experiment is described as follows: MIC, planktonic cells. As to conditions: Pseudomonas aeruginosa, 110, 18 h. Type of experiment: cell-based.
The next experiment has as its system C. albicans 006. The experiment is described as follows: microbe, parasite or virus in culture. Type of experiment: cell-based. Conditions: Candida albicans, 006, 72 h.
The test system of another experiment is C. neoformans 4906. As to the kind of experiment: microbe, parasite or virus in culture. Type of experiment: cell-based. Conditions: Cryptococcus neoformans, 4906, 72 h.
A further experiment relates to C. albicans 7248. The experiment is described as follows: microbe, parasite or virus in culture. Type of experiment: cell-based. Conditions: Candida albicans, 7248, 72 h.
The test system of the next experiment is C. albicans ATCC10231. As to the kind of experiment: microbe, parasite or virus in culture. The format is cell-based. Conditions: Candida albicans, ATCC10231, 72 h.
A further experiment has as its system C. neoformans 001. As to the kind of experiment: microbe, parasite or virus in culture. The format is cell-based. As to conditions: Cryptococcus neoformans, 001, 72 h.
For experiment [2], the system named is Drug-susceptible C. albicans. The format is cell-based.
In experiment [3] the test system is fluconazole-resistant C. albicans. Further details: species or system G. mellonella. Conditions: in vivo.
A further experiment concerns C. neoformans 6120. As to the kind of experiment: microbe, parasite or virus in culture. As to conditions: Cryptococcus neoformans, 6120, 72 h. The format is cell-based.
Another experiment relates to C. neoformans ATCC28957. As to the kind of experiment: microbe, parasite or virus in culture. The format is cell-based. As to conditions: Cryptococcus neoformans, ATCC28957, 72 h.

On to `CC(C)(O/N=C(\C(=O)N[C@@H]1C(=O)N2C(C(=O)[O-])=C(C[n+]3ccccc3)CS[C@H]12)c1csc(N)n1)C(=O)O` [Ceftazidime], for which the MIC was above 128 µg/mL with Enterococcus faecalis; 1 µg/mL (≈ 1.83 µM) against E. coli ATCC25922; above 128 µg/mL against P. aeruginosa 103; 64 µg/mL (≈ 117 µM) with E. coli A2; 1 µg/mL (≈ 1.83 µM) against P. aeruginosa ATCC27853; 0.5 µg/mL (≈ 0.915 µM) with P. aeruginosa CMCC10104. Moreover, the MIC against S. pneumoniae, against Mlicrococcus scarlatinae and in the experiment with P. aeruginosa 110 was above 128 µg/mL in each case. In addition, the MIC increase in [1] (at the 8th generation) is 4 fold; in [1] (at the 20th generation), 16 fold.
Consider `OC(Cn1cncn1)(Cn1cncn1)c1ccc(F)cc1F` [Fluconazole], for which the MIC with C. albicans 006 is 4 µg/mL (≈ 13.1 µM); with C. neoformans 4906 it was 128 µg/mL (≈ 418 µM); in the experiment with C. albicans 7248, above 128 µg/mL; in the experiment with C. albicans ATCC10231, 4 µg/mL (≈ 13.1 µM); with C. neoformans 001 it was 2 µg/mL (≈ 6.53 µM); in the experiment on C. neoformans 6120, above 128 µg/mL. Also, the MIC in the experiment on C. neoformans ATCC28957 came to 2 µg/mL (≈ 6.53 µM). Besides, in experiment [2], the MIC increase is 4 fold and 8 fold. The “survival rate of G. mellonella” value in experiment [3] was determined as 40%.
As to `CC1(C)S[C@@H]2[C@H](NC(=O)COc3ccccc3)C(=O)N2[C@H]1C(=O)O` [Penicillin V potassium], the MIC against Enterococcus faecalis was above 128 µg/mL; in the experiment with E. coli ATCC25922 it was 2 µg/mL; against P. aeruginosa 103, above 128 µg/mL; in the experiment with E. coli A2 it was above 128 µg/mL; in the experiment on P. aeruginosa ATCC27853 it was 2 µg/mL; against P. aeruginosa CMCC10104, 4 µg/mL. Also, the MIC against S. pneumoniae, with Mlicrococcus scarlatinae and in the experiment with P. aeruginosa 110 was above 128 µg/mL each time.
`CC(=O)N1CCN(c2ccc(OCC3COC(Cn4ccnc4)(c4ccc(Cl)cc4Cl)O3)cc2)CC1` (stereo not drawn) [ketoconazole]: the MIC increase in [2] amounted to 4 fold.
Regarding `C[C@H]1COc2c(N3CCN(C)CC3)c(F)cc3c(=O)c(C(=O)O)cn1c23` [levofloxacin], the results for the MIC increase in experiment [1] (at the 8th generation) and in [1] (at the 20th generation) were 4 fold and 8 fold, respectively.
In [1] (at the 8th generation), Polymyxin B had an MIC increase of 16 fold.
